Assay results taken from US4017488A, “Process for preparing 7β-acylamino-7α-alkoxycephalosporins” (Sankyo Company Limited, priority 1974, dated 1977).
Converted amounts (≈) assume the structure as drawn.

Legend:
Format in all cases: cell-based
[1] = system: broad range of disease germs; assay: Antimicrobial activities (general statement); conditions: statement in words
[2] = system: Staphylococcus aureus (CP and PC resistant); assay: Minimal inhibitory concentration, I B; conditions: read-out: Minimal inhibitory concentrations
Source text: (§1) Minimal inhibitory concentrations of various microorganisms mcg/ml
I B: Staphylococcus aureus (CP and PC resistant)

[3] = system: Klebsiella neumoniae 846 (CER resistant); assay: Minimal inhibitory concentration, IV B; conditions: read-out: Minimal inhibitory concentrations
Source text: as §1
IV B: Klebsiella neumoniae 846 (CER resistant)

[4] = system: Staphylococcus aureus 209p; assay: Minimal inhibitory concentration, I A; conditions: read-out: Minimal inhibitory concentrations
Source text: as §1
*I A: Staphylococcus aureus 209p

[5] = system: Shigella flexneri Komagome; assay: Minimal inhibitory concentration, III; conditions: read-out: Minimal inhibitory concentrations
Source text: as §1
III: Shigella flexneri Komagome

For `CO[C@@]1(NC(=O)CSc2ncc[nH]2)C(=O)N2C(C(=O)O)=C(COC(N)=O)CS[C@@H]21` [7β-(imidazol-2-yl)thioacetamido-7α-methoxy-3-carbamoyloxymethyl-3-cephem-4-carboxylic acid], the “anti-bacterial / antimicrobial activities” value [1] was “excellent anti-bacterial activities against a broad range of disease germs”.
For `CO[C@@]1(NC(=O)CSCC#N)C(=O)N2C(C(=O)O)=C(CSc3nnnn3C)CS[C@@H]21` [7β-cyanomethylthioacetamido-7α-methoxy-3-(1-methyl-1H-tetrazol-5-yl)thiomethyl-3-cephem-4-carboxylic acid], the “anti-bacterial / antimicrobial activities” value [1] was “excellent anti-bacterial activities against a broad range of disease germs”.
With `C#CCSCC(=O)N[C@]1(OC)C(=O)N2C(C(=O)O)=C(COC(N)=O)CS[C@@H]21` [7β-propargylthioacetamido-7α-methoxy-3-carbamoyloxymethyl-3-cephem-4-carboxylic acid] the “anti-bacterial / antimicrobial activities” value [1] was “excellent anti-bacterial activities against a broad range of disease germs”.
In the case of `CO[C@@]1(NC(=O)CSc2ncc[nH]2)C(=O)N2C(C(=O)O)=C(CSc3nnnn3C)CS[C@@H]21` [7β-(imidazol-2-yl)thioacetamido-7α-methoxy-3-(1-methyl-1H-tetrazol-5-yl)thiomethyl-3-cephem-4-carboxylic acid], the “anti-bacterial / antimicrobial activities” value [1] is reported as “excellent anti-bacterial activities against a broad range of disease germs”.
For `C#CCSCC(=O)N[C@]1(OC)C(=O)N2C(C(=O)O)=C(CSc3nnnn3C)CS[C@@H]21` [7β-propargylthioacetamido-7α-methoxy-3-(1-methyl-1H-tetrazol-5-yl)thiomethyl-3-cephem-4-carboxylic acid], the “anti-bacterial / antimicrobial activities” value [1] was “excellent anti-bacterial activities against a broad range of disease germs”.
With `CO[C@@]1(NC(=O)CSc2nnc(C)s2)C(=O)N2C(C(=O)O)=C(CSc3nnnn3C)CS[C@@H]21` [7β-(5-methyl-1,3,4-thiadiazol-2-yl)thioacetamido-7α-methoxy-3-(1-methyl-1H-tetrazol-5-yl)thiomethyl-3-cephem-4-carboxylic acid] the “anti-bacterial / antimicrobial activities” value [1] was “excellent anti-bacterial activities against a broad range of disease germs”.
`CO[C@@]1(NC(=O)CSc2nnc(C)s2)C(=O)N2C(C(=O)O)=C(COC(N)=O)CS[C@@H]21` [7β-(5-methyl-1,3,4-thiadiazol-2-yl)thioacetamido-7α-methoxy-3-carbamoyloxymethyl-3-cephem-4-carboxylic acid] was tested, and the “anti-bacterial / antimicrobial activities” value [1] was “excellent anti-bacterial activities against a broad range of disease germs”.
`CO[C@@]1(NC(=O)CSc2ncc[nH]2)C(=O)N2C(C(=O)O)=C(COC(C)=O)CS[C@@H]21` [7β-(imidazol-2-yl)thioacetamido-7α-methoxy-3-acetoxymethyl-3-cephem-4-carboxylic acid] was tested, and the “anti-bacterial / antimicrobial activities” value [1] was “excellent anti-bacterial activities against a broad range of disease germs”.
In the case of `CO[C@@]1(NC(=O)COc2ccon2)C(=O)N2C(C(=O)O)=C(COC(C)=O)CS[C@@H]21` [7β-(3-isoxazolyloxy)acetamido-7α-methoxy-3-acetoxymethyl-3-cephem-4-carboxylic acid], the “anti-bacterial / antimicrobial activities” value [1] is reported as “excellent anti-bacterial activities against a broad range of disease germs”.
In the case of `CO[C@@]1(NC(=O)CSCC#N)C(=O)N2C(C(=O)O)=C(COC(C)=O)CS[C@@H]21` [7β-cyanomethylthioacetamido-7α-methoxy-3-acetoxymethyl-3-cephem-4-carboxylic acid], the “anti-bacterial / antimicrobial activities” value [1] is reported as “excellent anti-bacterial activities against a broad range of disease germs”.
For `CO[C@@]1(NC(=O)CSc2nnc[nH]2)C(=O)N2C(C(=O)O)=C(COC(N)=O)CS[C@@H]21` [7β-(1,2,4-triazol-4H-3-yl)thioacetamido-7α-methoxy-3-carbamoyloxymethyl-3-cephem-4-carboxylic acid], the “anti-bacterial / antimicrobial activities” value [1] was “excellent anti-bacterial activities against a broad range of disease germs”.
`CO[C@@]1(NC(=O)COc2ccon2)C(=O)N2C(C(=O)O)=C(CSc3nnnn3C)CS[C@@H]21` [7β-(3-isoxazolyloxy)acetamido-7α-methoxy-3-(1-methyl-1H-tetrazol-5-yl)thiomethyl-3-cephem-4-carboxylic acid] showed an MIC [2] of 0.8 µg/mL (≈ 1.65 µM), an MIC [3] of over 400 µg/mL and an MIC [4] of 0.2 µg/mL (≈ 0.414 µM). For the same molecule, the “anti-bacterial / antimicrobial activities” value [1] was “excellent anti-bacterial activities against a broad range of disease germs” and the MIC [5] was 3.1 µg/mL (≈ 6.41 µM).
In the case of `CO[C@@]1(NC(=O)CSCN=[N+]=[N-])C(=O)N2C(C(=O)O)=C(COC(C)=O)CS[C@@H]21` [7β-azidomethylthioacetamido-7α-methoxy-3-acetoxymethyl-3-cephem-4-carboxylic acid], the “anti-bacterial / antimicrobial activities” value [1] is reported as “excellent anti-bacterial activities against a broad range of disease germs”.
In the case of `C#CCSCC(=O)N[C@]1(OC)C(=O)N2C(C(=O)O)=C(COC(C)=O)CS[C@@H]21` [7β-propargylthioacetamido-7α-methoxy-3-acetoxymethyl-3-cephem-4-carboxylic acid], the “anti-bacterial / antimicrobial activities” value [1] is reported as “excellent anti-bacterial activities against a broad range of disease germs”.
`CO[C@@]1(NC(=O)CSc2nncs2)C(=O)N2C(C(=O)O)=C(COC(C)=O)CS[C@@H]21` [7β-(1,3,4-thiadiazol-2-yl)thioacetamido-7α-methoxy-3-acetoxymethyl-3-cephem-4-carboxylic acid] was tested, and the “anti-bacterial / antimicrobial activities” value [1] was “excellent anti-bacterial activities against a broad range of disease germs”.
With `CO[C@@]1(NC(=O)CSCC#N)C(=O)N2C(C(=O)O)=C(COC(N)=O)CS[C@@H]21` [7β-cyanomethylthioacetamido-7α-methoxy-3-carbamoyloxymethyl-3-cephem-4-carboxylic acid] the “anti-bacterial / antimicrobial activities” value [1] was “excellent anti-bacterial activities against a broad range of disease germs”.
`CO[C@@]1(NC(=O)CSc2ccon2)C(=O)N2C(C(=O)O)=C(COC(C)=O)CS[C@@H]21` [7β-(3-isoxazolyl)thioacetamido-7α-methoxy-3-acetoxymethyl-3-cephem 4-carboxylic acid] was tested, and the “anti-bacterial / antimicrobial activities” value [1] was “excellent anti-bacterial activities against a broad range of disease germs”.
For `CO[C@@]1(NC(=O)CSc2nncs2)C(=O)N2C(C(=O)O)=C(COC(N)=O)CS[C@@H]21` [7β-(1,3,4-thiadiazol-2-yl)thioacetamido-7α-methoxy-3-carbamoyloxymethyl-3-cephem-4-carboxylic acid], the “anti-bacterial / antimicrobial activities” value [1] was “excellent anti-bacterial activities against a broad range of disease germs”.
In the case of `CO[C@@]1(NC(=O)CSc2nncs2)C(=O)N2C(C(=O)O)=C(CSc3nnnn3C)CS[C@@H]21` [7β-(1,3,4-thiadiazol-2-yl)thioacetamido-7α-methoxy-3-(1-methyl-1H-tetrazol-5-yl)thiomethyl-3-cephem-4-carboxylic acid], the “anti-bacterial / antimicrobial activities” value [1] is reported as “excellent anti-bacterial activities against a broad range of disease germs”.
